Entries after “also recorded” stand apart in the source; their conditions may differ. Where two headings read alike, the source gives them in different places.
Experiments:
RKO CRBN KO cells [1] = experiment: Cell viability assay (CellTiter-Glo); format: cell-based, human; settings: 316 pM to 10 μM, 3 days, n = 3 (Figures 5 and 8C, Table S5)
RKO CRBN/VHL dKO cells = experiment: Cell viability assay (CellTiter-Glo); format: cell-based, human; settings: Homo sapiens, 72 h, read-out: EC50 RKO CRBN/VHL dKO
RKO VHL KO cells = experiment: Cell viability assay (CellTiter-Glo); format: cell-based, human
[2] = tested on: HiBiT-BRD4 and HaloTag-CRBN; experiment: NanoBRET live cell ternary complex formation assay; format: cell-based, human
Method: NanoBRET ternary complex assays were performed using Promega kits for CRBN (ND2720) and VHL (ND2700) according to manufacturer’s instructions. One day prior to the assay, HEK293 HiBiT-BRD4 (LgBiT Stable) were plated at a density of 800,000 cells/well in a 6-well plate. Cells were allowed to adhere for at least 4 h. Transfection mixtures containing 100 μL Opti-MEM, 6 μL FuGENE HD, and either 2 μg HaloTag-CRBN or HaloTag-VHL were prepared and allowed to incubate for 10 min at room temperature prior to addition to the cells. The next day, cells were trypsinized and resuspended in phenol red-free Opti-MEM Reduced Serum Medium supplemented with 4% FBS. Cells were counted and density was adjusted to 200,000 cells/mL. Cells were divided into two pools: one which received HaloTag NanoBRET 618 Ligand at a final concentration of 100 nM and one which received the same volume of DMSO. Cells were plated on white tissue-culture 96-well plates (100 μL/well) and allowed to adhere overnight. The next day, media was aspirated from the cells and replaced with phenol red-free Opti-MEM Reduced Serum medium supplemented with 4% FBS and a 1:100 dilution of Nano-Glo Vivazine substrate (Promega) and 10 μM MG132. Luminescence was allowed to equilibrate at 37 °C, 5% CO2 for 1 h. During this time, a dilution series of each PROTAC at 10x the desired final concentration was prepared (keeping DMSO constant in all concentrations). 10 μL of this dilution series was added to the plate after luminescence equilibration, and kinetic measurements of donor emission at 460 nm and acceptor emission at 618 nm were collected every 3 min using a ClarioStar plate reader. milliBRET ratios were calculated as (Emission at 618 nm/Emission at 460 nm) × 1000. Donor-contributed background or bleedthrough was corrected for by subtracting milliBRET ratios from no ligand control cells from treated cells. Corrected milliBRET ratios were plotted as a function of time in GraphPad Prism.

RKO CRBN KO cells [3] = experiment: Cell viability assay (CellTiter-Glo); format: cell-based, human; settings: Homo sapiens, 72 h, 500 pM to 10 μM, 3 days (Figure 10, Table S6)
CRBN = CRBN (Homo sapiens, UniProt Q96SW2); experiment: NanoBRET lytic and live cell target engagement assay; format: binding; set-up: host or cells: HEK293, transient; settings: for IC50: HEK293 cells with NanoLuc-CRBN, CRBN fluorescent tracer
Method: CRBN (N2910, Promega) and VHL (N2930, Promega) NanoBRET target engagement assays were performed according to manufacturer’s instructions. Transfection complexes were prepared using 1 mL Opti-MEM, 30 μL FuGENE HD, and either 9 μg/mL DDB1 Expression Vector and 1 μg/mL NanoLuc-CRBN fusion vector, or 9 μg/mL Transfection Carrier DNA and 1 μg/mL VHL-NanoLuc fusion vector. Transfection complexes were allowed to form for 20 min at room temperature, then were added to 20 mL of HEK293 cells at density of 200,000 cells/mL. Transfected HEK293 cells were plated in a T75 flask and allowed to express protein overnight. The next day, 85 μL of transfected cells (at 200,000 cells/mL) were replated in white nonbinding 96-well plates for live and lytic target engagement measurements. For live mode, a 100x solution of NanoBRET tracer was prepared using 100% DMSO (50 μM for CRBN live-cell, 100 μM for VHL live-cell). 100x tracer was used to prepare 20× tracer using tracer dilution buffer. PROTACs or test compounds were prepared at 10x final concentrations in Opti-MEM. Five μL of the prepared tracer was then dispensed to each well and the plate was mixed on an orbital shaker at 300 rpm for 15 s. Ten μL of each 10x PROTAC dilution was added to the cells and the plate was mixed again before being incubated at a 37 °C, 5% CO2 incubator for 2 or 5 h (as indicated in each figure). After incubation, a 50 μL of a 3X substrate solution (containing 30 μL NanoBRET Nano-Glo Substrate, 10 μL Extracellular NanoLuc inhibitor, and 4960 μL of Opti-MEM) was added to each well. Plates were incubated for 2–3 min at room temperature, then donor emission (450 nm) and acceptor emission (at 610 nm) values were read using a GloMax Discover. For lytic mode, the following changes were made. […] Plates were incubated in darkness for 5 min after digitonin addition to allow for permeabilization. 50 μL of 3X substrate (30 μL NanoBRET Nano-Glo substrate and 4970 μL Opti-MEM) was added to each well and plates were incubated for 1 min at room temperature before being read on a GloMax Discover as above.

CRBN, sequence (Q96SW2 whole entry, the tested form may be a part): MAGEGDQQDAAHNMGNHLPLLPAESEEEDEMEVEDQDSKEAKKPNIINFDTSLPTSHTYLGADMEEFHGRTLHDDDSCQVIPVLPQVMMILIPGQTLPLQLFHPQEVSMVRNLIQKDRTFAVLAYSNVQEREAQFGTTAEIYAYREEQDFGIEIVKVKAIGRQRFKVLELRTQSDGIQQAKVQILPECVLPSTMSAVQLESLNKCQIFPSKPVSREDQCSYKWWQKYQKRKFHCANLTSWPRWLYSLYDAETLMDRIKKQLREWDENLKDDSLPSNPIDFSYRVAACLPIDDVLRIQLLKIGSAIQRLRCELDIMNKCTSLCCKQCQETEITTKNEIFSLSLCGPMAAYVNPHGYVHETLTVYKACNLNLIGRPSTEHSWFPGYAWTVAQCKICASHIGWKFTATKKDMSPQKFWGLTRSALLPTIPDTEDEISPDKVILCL
CRBN, sequence (Q16531 whole entry partner, the tested form may be a part): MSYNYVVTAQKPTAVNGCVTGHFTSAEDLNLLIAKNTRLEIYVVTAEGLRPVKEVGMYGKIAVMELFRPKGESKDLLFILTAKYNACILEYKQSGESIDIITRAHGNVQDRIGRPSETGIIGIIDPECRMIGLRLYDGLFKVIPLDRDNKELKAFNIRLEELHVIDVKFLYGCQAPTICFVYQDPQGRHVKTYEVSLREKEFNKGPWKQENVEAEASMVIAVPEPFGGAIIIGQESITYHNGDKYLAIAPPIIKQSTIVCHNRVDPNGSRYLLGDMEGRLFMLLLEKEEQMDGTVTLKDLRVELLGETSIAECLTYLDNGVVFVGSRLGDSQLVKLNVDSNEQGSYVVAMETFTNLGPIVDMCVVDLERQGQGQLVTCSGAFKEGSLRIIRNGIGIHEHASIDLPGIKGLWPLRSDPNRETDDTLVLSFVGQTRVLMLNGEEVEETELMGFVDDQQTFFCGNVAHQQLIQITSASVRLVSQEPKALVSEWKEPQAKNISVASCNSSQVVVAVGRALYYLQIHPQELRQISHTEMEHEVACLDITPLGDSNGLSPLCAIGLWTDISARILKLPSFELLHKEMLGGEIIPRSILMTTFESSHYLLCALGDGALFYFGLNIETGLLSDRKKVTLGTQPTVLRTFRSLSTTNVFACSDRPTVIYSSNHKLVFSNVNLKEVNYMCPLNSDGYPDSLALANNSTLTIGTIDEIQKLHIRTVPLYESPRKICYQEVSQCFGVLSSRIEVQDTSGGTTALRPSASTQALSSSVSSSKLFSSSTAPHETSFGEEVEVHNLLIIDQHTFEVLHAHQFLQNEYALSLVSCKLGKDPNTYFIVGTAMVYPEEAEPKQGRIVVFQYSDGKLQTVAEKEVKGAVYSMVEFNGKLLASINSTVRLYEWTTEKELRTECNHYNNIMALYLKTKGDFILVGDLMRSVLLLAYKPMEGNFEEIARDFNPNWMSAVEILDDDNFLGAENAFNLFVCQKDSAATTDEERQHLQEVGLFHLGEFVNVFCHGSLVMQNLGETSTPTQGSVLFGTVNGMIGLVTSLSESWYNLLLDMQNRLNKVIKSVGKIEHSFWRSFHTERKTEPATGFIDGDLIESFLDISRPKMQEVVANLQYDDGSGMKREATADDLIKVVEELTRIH

fold stronger engagement of CRBN over 26, live cell format (CRBN; 27 vs 26): 2.5 fold
IC50 (CRBN; live cells 2 h, read-out: IC50 (Live Cell), Target: CRBN): 0.624 µM
IC50 (CRBN; lysed with digitonin, read-out: IC50 (Lytic Cell), Target: CRBN): 0.19 µM
SMILES: Cc1ncsc1-c1ccc([C@H](C)NC(=O)[C@@H]2C[C@@H](O)CN2C(=O)[C@@H](NC(=O)COCC(C)(COCCOCCOCCNc2cc3c(cc2F)C(=O)N(C2CCC(=O)NC2=O)C3=O)COCCOCCOCCOC(=O)C[C@@H]2N=C(c3ccc(Cl)cc3)c3c(sc(C)c3C)-n3c(C)nnc32)C(C)(C)C)cc1 (mixture of isomers) [AB3067 (27), (17S)-11-((2-(2-(2-((2-(2,6-dioxopiperidin-3-yl)-6-fluoro-1,3-dioxoisoindolin-5-yl)amino)ethoxy)ethoxy)ethoxy)methyl)-17-((2S,4R)-4-hydroxy-2-(((S)-1-(4-(4-methylthiazol-5-yl)phenyl)ethyl)carbamoyl)pyrrolidine-1-carbonyl)-11,18,18-trimethyl-15-oxo-3,6,9,13-tetraoxa-16-azanonadecyl 2-((S)-4-(4-chlorophenyl)-2,3,9-trimethyl-6H-thieno[3,2-f][1,2,4]triazolo[4,3-a][1,4]diazepin-6-yl)acetate]
EC50 (RKO CRBN KO cells [1]; listed as 27): 0.133 µM
EC50 (RKO CRBN KO cells [1]; Homo sapiens, 72 h): 0.18 µM
EC50 (RKO CRBN/VHL dKO cells; 316 pM to 10 μM, 3 days, n = 3 (Figures 5 and 8C, Table S5)): 0.988 µM
EC50 (RKO CRBN/VHL dKO cells; 500 pM to 10 μM, 3 days (Figure 10, Table S6)): 0.818 µM
EC50 (RKO VHL KO cells; 316 pM to 10 μM, 3 days, n = 3 (Figures 5 and 8C, Table S5), listed as 27): 0.18 µM
EC50 (RKO VHL KO cells; Homo sapiens, 72 h, 316 pM to 10 μM, 3 days, n = 3 (Figures 5 and 8C, Table S5)): 0.133 µM
EC50 (RKO VHL KO cells; Homo sapiens, 72 h, 500 pM to 10 μM, 3 days (Figure 10, Table S6)): 0.11 µM
ternary complex formation between BRD4 and CRBN (in words) ([2]; HiBiT-BRD4 HEK293 cells, HaloTag-CRBN, MG132 pretreatment, 0.01, 0.1 and 1 μM, 3.5 h, listed as 27): can engage and form ternary complexes; also recorded: more robust dose–response with both VHL and CRBN than 26
time to plateau of ternary complex signal with CRBN ([2]; NanoBRET, HiBiT-BRD4 HEK293 cells with HaloTag-CRBN): 30 min
EC50 (RKO CRBN KO cells [3]): 0.082 µM

From publication PMC11638965, “Leveraging Dual-Ligase Recruitment to Enhance Protein Degradation via a Heterotrivalent Proteolysis Targeting Chimera” (Journal of the American Chemical Society, 2024)
